Publication PMC7681098 (Theranostics, 2021)
Like-named read-outs stand apart in the source and are kept apart here.

Legend:
[1] = tested on: MV4-11 cells and MOLM13 cells; experiment: Subcutaneous xenograft model; assay type: in vivo, BALB/c nude mice
Experimental: According to previously described, [31], BALB/c nude mice were subcutaneously inoculated with MV4-11 cells (5×10^6) and MOLM13 cells (5×10^6). […] Tumor volume and body weight were measured with the caliper twice weekly. Tumor volumes were calculated based on: tumor volume=length×width^2/2.
LT-171-861 was administered every two days in xenograft mice. […] Tumor-eliminated mice were monitored for an additional 20 days after dosing was halted.
(§1) Data were shown as mean±SD. […] Data were shown as mean±SD. (C) An engrafted tumor model was used to evaluate in vivo antitumor activity. The NOD/SCID mice were intravenously inoculated with MV4-11 cells. […] Log-rank testing was used to compare survival curves among treatment groups. […] (D) Apoptotic assays in engraft model were evaluated by TUNEL assay and cell proliferative activity was measured by Ki67 assay. Images were acquired at ×40 magnification. (E) BALB/c nude mice were subcutaneously inoculated with MV4-11 cells (5×10^6) and bodyweight of each mouse was recorded every other day. (F) Representative photo of tumors from BALB/c nude mice which were inoculated with MV4-11 cells. (G) BALB/c nude mice were subcutaneously inoculated with BaF3 cells bearing FLT3-ITD-N676D (n=6) and FLT3-ITD-F691L (n=6) respectively. […] (H) BALB/c mice were intravenously inoculated with cells used in (G). […] Log-rank testing was used to compare survival curves among treatment groups. […] (I) Representative photos of spleens dissected from mice in (H) inoculated with BaF3 cells bearing FLT-3-ITD-F691L.

JAK2 = molecular target: T1, JAK2 (Homo sapiens, UniProt O60674); experiment: Kinase inhibition assay (Reaction Biology); assay type: biochemical
T1 construct: purchased Reaction Biology Corporation (PA, USA)
T1 sequence (O60674 whole entry): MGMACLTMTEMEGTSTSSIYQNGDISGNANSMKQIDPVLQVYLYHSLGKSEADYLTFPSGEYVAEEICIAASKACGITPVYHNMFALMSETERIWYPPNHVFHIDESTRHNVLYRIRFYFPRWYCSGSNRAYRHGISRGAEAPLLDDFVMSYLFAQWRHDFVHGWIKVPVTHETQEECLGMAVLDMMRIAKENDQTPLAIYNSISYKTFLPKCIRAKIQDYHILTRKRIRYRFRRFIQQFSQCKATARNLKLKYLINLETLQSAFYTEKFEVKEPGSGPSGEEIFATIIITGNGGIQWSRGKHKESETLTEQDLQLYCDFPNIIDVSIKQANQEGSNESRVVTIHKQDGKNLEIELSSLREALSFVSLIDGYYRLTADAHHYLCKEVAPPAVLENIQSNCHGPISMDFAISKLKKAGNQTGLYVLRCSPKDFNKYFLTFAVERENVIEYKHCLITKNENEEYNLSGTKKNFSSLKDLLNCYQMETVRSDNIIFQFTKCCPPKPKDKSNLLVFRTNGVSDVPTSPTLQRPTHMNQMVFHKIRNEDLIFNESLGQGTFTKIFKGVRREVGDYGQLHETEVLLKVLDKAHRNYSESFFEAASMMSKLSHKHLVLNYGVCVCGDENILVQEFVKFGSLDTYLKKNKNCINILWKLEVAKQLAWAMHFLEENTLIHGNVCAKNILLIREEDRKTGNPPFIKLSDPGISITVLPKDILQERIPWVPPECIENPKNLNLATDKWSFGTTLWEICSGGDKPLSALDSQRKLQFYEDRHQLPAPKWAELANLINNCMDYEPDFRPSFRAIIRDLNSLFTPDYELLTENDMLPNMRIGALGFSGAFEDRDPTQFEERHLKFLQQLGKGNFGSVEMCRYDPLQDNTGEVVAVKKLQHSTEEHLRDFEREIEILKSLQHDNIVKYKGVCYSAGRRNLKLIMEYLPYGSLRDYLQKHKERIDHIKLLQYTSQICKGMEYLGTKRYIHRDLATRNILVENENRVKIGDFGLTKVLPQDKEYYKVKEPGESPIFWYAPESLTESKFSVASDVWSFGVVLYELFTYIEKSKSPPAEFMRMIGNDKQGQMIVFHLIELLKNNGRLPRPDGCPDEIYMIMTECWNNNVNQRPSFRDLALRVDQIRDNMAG

FLT3 [2] = molecular target: T2, FLT3 (Homo sapiens, UniProt P36888); experiment: Kinase inhibition assay (Reaction Biology); assay type: biochemical
T2 construct: purchased Reaction Biology Corporation (PA, USA)

FGFR1 = molecular target: T3, FGFR1 (Homo sapiens, UniProt P11362); experiment: Kinase inhibition assay (Reaction Biology); assay type: biochemical
T3 construct: purchased Reaction Biology Corporation (PA, USA)
T3 sequence (P11362 22-822): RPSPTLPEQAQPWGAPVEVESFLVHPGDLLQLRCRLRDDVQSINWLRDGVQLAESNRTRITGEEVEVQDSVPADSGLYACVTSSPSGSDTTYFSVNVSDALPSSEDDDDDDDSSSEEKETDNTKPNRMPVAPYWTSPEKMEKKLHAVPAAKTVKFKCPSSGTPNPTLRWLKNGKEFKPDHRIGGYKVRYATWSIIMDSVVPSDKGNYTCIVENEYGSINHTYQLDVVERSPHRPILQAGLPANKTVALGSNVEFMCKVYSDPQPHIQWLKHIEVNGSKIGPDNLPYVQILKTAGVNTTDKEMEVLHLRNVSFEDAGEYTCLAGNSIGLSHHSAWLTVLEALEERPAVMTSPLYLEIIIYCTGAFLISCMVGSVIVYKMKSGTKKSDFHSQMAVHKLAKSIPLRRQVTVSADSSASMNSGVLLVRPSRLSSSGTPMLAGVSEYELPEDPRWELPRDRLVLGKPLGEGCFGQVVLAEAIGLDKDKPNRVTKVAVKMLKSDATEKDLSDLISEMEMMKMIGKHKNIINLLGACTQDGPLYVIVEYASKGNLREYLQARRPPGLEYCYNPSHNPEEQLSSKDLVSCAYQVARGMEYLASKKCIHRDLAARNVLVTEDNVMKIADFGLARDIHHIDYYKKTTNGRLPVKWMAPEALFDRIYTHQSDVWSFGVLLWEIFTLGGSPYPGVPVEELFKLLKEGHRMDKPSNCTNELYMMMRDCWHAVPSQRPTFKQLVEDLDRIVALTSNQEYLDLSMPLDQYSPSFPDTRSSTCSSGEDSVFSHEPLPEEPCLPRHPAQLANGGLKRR

PK study in mice = assay type: in vivo, BALB/c mice; settings: for MRT last: read-out: MRT(0-t); for MRT inf: read-out: MRT(0-∞); for concentration at 12 h: read-out: plasma concentration 12 h after administration; for half-life: read-out: apparent plasma half-life (t1/2z) (converted)
Experimental: After dosing, blood samples were collected at indicated time points (15 min, 30 min, 45 min, 60 min, 90 min, 2 h, 4 h, 6 h, 8 h, 12 h, 24 h). Blood samples from each group were collected at each time point and the supernatant was collected and used for HPLC/LC-MAS analysis.
Then, plasma levels of LT-171-861 were measured at each indicated time point. […] This inhibition efficacy lasted for 24 h, in accordance with the results of the PK experiment.

FLT3 (D835Y) = molecular target: T4, FLT3 (D835Y) (Homo sapiens, UniProt P36888, D835Y); experiment: Kinase inhibition assay (Reaction Biology); assay type: biochemical
T4 construct: purchased Reaction Biology Corporation (PA, USA)

FLT3 [3] = molecular target: FLT3 (Homo sapiens, UniProt P36888); experiment: Cellular thermal shift assay (CETSA / ITDRF CETSA) in MV4-11 cells; assay type: binding
Experimental: All studies were performed with the Super Streptavidin (SSA) biosensors (CA, USA). All binding experiments were performed according to the manufacturer's instructions. For the cellular thermal shift assay (CETSA), experiments were performed as described previously.
A concentration range from 0.3 nM to 1000 nM was defined (Figure 1B). […] CETSA has been used to identify FLT3-LT-171-861 interactions in live cell settings. […] We first verified that the inhibitor could stabilize FLT3 against denaturation using Western blot. […] An obvious thermal shift of the melting curve was detected in the LT-171-861-treated sample (Figure 1C). […] Accordingly, we identified 53 °C as the optimal temperature for isothermal […] fingerprint (ITDRF) CETSA.
(§2) (A) Chemical structure of LT-171-861. […] Data were then fitted to obtain KD value. […] Data were first normalized by setting the highest and lowest value in each set to 100% and 0% respectively. Data were obtained in the presence of the LT-171-861 (blue circle) as positive the control and DMSO (red square) as the negative control. All experiments were performed at three independent occasions and data are given as the mean ± SD. […] Cell viability was evaluated by MTT assay respectively. The IC50 values were calculated using nonlinear regression.

FLT3 [4] = molecular target: FLT3 (Homo sapiens, UniProt P36888); experiment: FLT3 autophosphorylation by western blot in MV4-11 and MOLM13 cells; assay type: cell-based; settings: 2 h, read-out: IC50 of inhibition of FLT3 autophosphorylation
Experimental: Western blot analysis was performed as previously described. AML cell lines, BaF3 transformed cell lines and human primary cells were treated with the indicated concentration of FLT3 inhibitors for 2 h. To examine the phosphorylation levels of FLT3-Y591 (Cat. #3464s), p44/42-Thr202/Tyr204 (Cat. #4370), whole-cell lysates were subjected to immunoblotting with the corresponding primary antibodies from Cell Signaling Technology (MA, USA). Anti-STAT5 (Cat. #a7733), anti-STAT5-Y694 (Cat. #ap0070), anti-ERK1/2 (Cat. #a1013), anti-AKT (Cat. #a7270), anti-AKT-Ser473 (Cat. #ap0098), anti-Caspase 3 (Cat. #a11021), anti-PARP1 (Cat. #a0010), anti-Bcl2 (Cat. #a19693), anti-Mcl-1 (Cat. #a0434), anti-Pim2 (Cat. #a9230), anti-Caspase8 (Cat. #a19549) and anti-FLT3 (Cat. #a12437) were purchased from ABclonal Company (Wuhan, China).
as §2

[5] = tested on: BaF3-transfected cells (FLT3-ITD-N676D, FLT3-ITD-F691L); experiment: Intravenous implantation of BaF3-transfected cells, survival; assay type: in vivo, BALB/c nude mice; settings: 10 mg/kg once every other day, 8 cycles
Experimental: as §1
Cells were injected into the tail vein of BALB/c nude mice and allowed to engraft for 5 days. […] This schedule was repeated for 8 cycles.

[6] = female, BALB/c, mouse, plasma, 10 mg/kg, IV
[7] = female, BALB/c, mouse, plasma, po, 10 mg/kg, IG

With `CN1CCN(Cc2ccc(NC(=O)c3n[nH]cc3Nc3ncnc4[nH]ccc34)cc2)CC1` [LT-171-861] as the compound, how does the “tumor growth in xenograft models” value ([1]; 10 mg/kg intravenous every two days, 20 or 24-day treatment) read?
Its value is “complete tumor regression was achieved”.

What about the bodyweight during dosing ([1]; MV4-11 cell line xenograft model) of the same compound?
The bodyweight during dosing was “no significant weight suppression”.

What about the “H&E staining in liver, heart, spleen, lung and kidney” value ([1]; MV4-11 cell line xenograft model, end of experiment) of the same compound?
Its value is “no significant damage”.

And the “tumor regrowth after dosing was halted” value ([1]; monitored for an additional 20 days)?
Its value is “No tumor regrowth was observed”.

And the IC50 (JAK2)?
Its IC50 is 33.8 nM.

And the IC50 (FLT3 [2])?
The IC50 was < 1 nM.

What about the IC50 (FLT3 [2]; 10 μM ATP, 10-dose IC50 mode) of the same compound?
Its IC50 is 0.234 nM.

What about the IC50 (FGFR1) of the same compound?
The IC50 was 20 nM.

What about the CLz (PK study in mice; 10 mg/kg, IG) of the same compound?
Its CLz is 314.0953 mL/min/kg.

What about the Vz (PK study in mice; 10 mg/kg, IG) of the same compound?
The Vz was 100.1863 L/kg.

And the AUC(0-inf) (PK study in mice; [6])?
The AUC(0-inf) was 3380 ng·h/mL.

And the AUC(0-t) (PK study in mice; [6])?
Its AUC(0-t) is 3310 ng·h/mL.

What about the clearance (PK study in mice; female, BALB/c, mouse, plasma, 10 mg/kg, IV, read-out: CLz (converted)) of the same compound?
The clearance was 49.3 mL/min/kg.

And the MRT last (PK study in mice; [6])?
The MRT last was 1.86 h.

What about the MRT inf (PK study in mice; [6]) of the same compound?
The MRT inf was 2.1 h.

And the Vd (PK study in mice; female, BALB/c, mouse, plasma, 10 mg/kg, IV, read-out: Vz)?
The Vd was 8.61 L/kg.

What about the Cmax (PK study in mice; female, BALB/c, mouse, plasma, 10 mg/kg, intravenous injection (IV)) of the same compound?
Its Cmax is 2170 ng/mL.

What about the Cmax (PK study in mice; female, BALB/c, mouse, plasma, 10 mg/kg, oral administration) of the same compound?
Its Cmax is 200 nM.

What about the Cmax (PK study in mice; female, BALB/c, mouse, plasma, 10 mg/kg, oral administration (IG)) of the same compound?
Its Cmax is 88 ng/mL.

What about the concentration at 12 h (PK study in mice; female, BALB/c, mouse, plasma, intravenous, 10 mg/kg, i.v) of the same compound?
Its concentration at 12 h is 50.1 nM.

And the half-life (PK study in mice; female, BALB/c, mouse, plasma, iv, 10 mg/kg, intravenous (tail) injection (IV))?
The half-life was 2.02 h.

What about the bioavailability (PK study in mice; female, BALB/c, mouse, plasma, oral versus intravenous at 10 mg/kg) of the same compound?
Its bioavailability is ~15%.

What about the concentration at 12 h (PK study in mice; female, BALB/c, mouse, plasma, oral, 10 mg/kg, p.o) of the same compound?
Its concentration at 12 h is 30 nM.

And the AUC(0-inf) (PK study in mice; [7])?
The AUC(0-inf) was 531 ng·h/mL.

What about the AUC(0-t) (PK study in mice; [7]) of the same compound?
The AUC(0-t) was 463 ng·h/mL.

And the MRT last (PK study in mice; [7])?
Its MRT last is 4.28 h.

What about the MRT inf (PK study in mice; [7]) of the same compound?
The MRT inf was 5.95 h.

And the Tmax (PK study in mice; female, BALB/c, mouse, plasma, po, 10 mg/kg, oral administration (IG), read-out: Tmax (time to maximum plasma level))?
The Tmax was 1 h.

And the half-life (PK study in mice; female, BALB/c, mouse, plasma, po, 10 mg/kg, oral administration (IG))?
Its half-life is 3.68 h.

What about the IC50 (FLT3 (D835Y)) of the same compound?
The IC50 was < 1 nM.

And the IC50 (FLT3 (D835Y); 10 μM ATP, 10-dose IC50 mode)?
The IC50 was 0.132 nM.

And the Kd (FLT3 [3]; 1 h, 53 °C, read-out: fitted Kd value (ITDRF CETSA))?
The Kd was 78.5 nM.

And the “apparent aggregation temperature (Tagg) for FLT3” value (FLT3 [3]; LT-171-861 10 µM 1 h, 49.11 °C without LT-171-861)?
The value was 52.91 °C.

What about the IC50 (FLT3 [4]) of the same compound?
Its IC50 is ≤ 40 nM.

What about the survival versus vehicle [5] of the same compound?
Its survival versus vehicle is “significant survival advantage”.
